Some test systems named below: SNB-75 CNS; PC-3 prostate; SK-MEL-2 melanoma; HL-60(TB) leukemia; HT29 colon; OVCAR-3 ovarian; HOP-92 NSCLC; SK-OV-3 ovarian; 786-0 renal; SF-539 CNS.
What all share (assay): NCI anticancer screen, dose series, 48 h

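Values below derive from 48-hour exposures of cells grown in 96-well plates, with endpoints linearly interpolated between the two concentrations bracketing the appropriate inhibition level. GI50: concentration for 50% inhibition of growth. TGI denotes the concentration required for complete inhibition of growth.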

As for `CN(C)NC1=NS(=O)(=O)c2cc3c(cc2S1)N(N(C)C)C(=O)c1cc2c(cc1N(N(C)C)C3=O)SC(NN(C)C)=NS2(=O)=O`, the TGI in the assay on SNB-75 CNS, in the assay with PC-3 prostate, in the assay on SK-MEL-2 melanoma, in the assay with HL-60(TB) leukemia, with HT29 colon and in the assay on OVCAR-3 ovarian was > 10 µM throughout. Also, the TGI in the assay with HOP-92 NSCLC, in the assay on SK-OV-3 ovarian, in the assay with 786-0 renal and in the assay with SF-539 CNS was > 10 µM in each case.

In the case of `O=[N+]([O-])c1ccc(-c2nc(N(CCO)CCO)c3ccccc3n2)o1`, the GI50 was 0.16 µM in the assay with SNB-75 CNS; 0.293 µM in the assay with PC-3 prostate; 0.158 µM with SK-MEL-2 melanoma; 0.311 µM in the assay with HL-60(TB) leukemia; 0.184 µM with HT29 colon; 0.235 µM in the assay on OVCAR-3 ovarian. Further, the GI50 is 0.247 µM with HOP-92 NSCLC, 0.156 µM in the assay on SK-OV-3 ovarian, 0.231 µM in the assay on 786-0 renal and 0.272 µM in the assay on SF-539 CNS. Besides, the TGI amounted to 0.588 µM in the assay on SNB-75 CNS; 2.84 µM in the assay with PC-3 prostate; 0.361 µM with SK-MEL-2 melanoma; 2.91 µM with HL-60(TB) leukemia; 3.07 µM with HT29 colon; 1.43 µM in the assay with OVCAR-3 ovarian. In addition, the TGI amounted to 0.831 µM in the assay on HOP-92 NSCLC, 0.401 µM in the assay on SK-OV-3 ovarian, 0.621 µM in the assay on 786-0 renal and 1.24 µM with SF-539 CNS.

As to `O=C(/C=C/C=C/c1ccccc1)CCc1ccccc1`, the TGI in the assay on SNB-75 CNS is > 100 µM; with PC-3 prostate, > 100 µM; in the assay with SK-MEL-2 melanoma, > 100 µM; in the assay on HL-60(TB) leukemia, 53 µM; in the assay on HT29 colon it was > 100 µM; in the assay with OVCAR-3 ovarian it was > 100 µM. For the same compound, the TGI in the assay with HOP-92 NSCLC, with SK-OV-3 ovarian, in the assay with 786-0 renal and with SF-539 CNS was > 100 µM throughout.

In the case of `Cc1ccccc1C(=O)C#Cc1cn(C2CC(O)C(CO)O2)c(=O)[nH]c1=O` (stereo not given), the TGI with SNB-75 CNS, with PC-3 prostate, with SK-MEL-2 melanoma, in the assay on HL-60(TB) leukemia, in the assay on HT29 colon and in the assay on OVCAR-3 ovarian was > 100 µM throughout. Also, the TGI in the assay on HOP-92 NSCLC, with SK-OV-3 ovarian, in the assay on 786-0 renal and with SF-539 CNS was > 100 µM throughout.

As for `CC1(C)NCCC[C@]2(C)[C@H]3C=CC4=C5C[C@](C)(CO)CC[C@]5(C)CC[C@@]4(C)[C@]3(C)CC[C@@H]12`, the GI50 with SNB-75 CNS is 3.43 µM; in the assay on PC-3 prostate it was 3.05 µM; with SK-MEL-2 melanoma, 3.31 µM; in the assay on HL-60(TB) leukemia, 2.63 µM; with HT29 colon, 3.25 µM; in the assay with OVCAR-3 ovarian, 2.69 µM. In addition, the GI50 with HOP-92 NSCLC is 3.1 µM; in the assay on SK-OV-3 ovarian, 14.5 µM; in the assay with 786-0 renal, 2.66 µM; in the assay with SF-539 CNS, 2.69 µM. The TGI was 14.8 µM with SNB-75 CNS; 12.3 µM with PC-3 prostate; 12.2 µM with SK-MEL-2 melanoma; 7.02 µM in the assay with HL-60(TB) leukemia; 13.8 µM in the assay with HT29 colon; 7.06 µM with OVCAR-3 ovarian. Besides, the TGI with HOP-92 NSCLC is 14.6 µM; in the assay on SK-OV-3 ovarian, 28.6 µM; in the assay on 786-0 renal, 8.59 µM; in the assay on SF-539 CNS, 9.26 µM.

For `Cc1cccc(C)c1NC(=O)/C(Cl)=C(/Cl)C(=O)O`, the TGI is 43.4 µM in the assay with SNB-75 CNS; 50.4 µM with PC-3 prostate; 31.5 µM in the assay with SK-MEL-2 melanoma; > 100 µM with HL-60(TB) leukemia; 39.3 µM with HT29 colon; 41.8 µM in the assay on OVCAR-3 ovarian. For the same compound, the TGI in the assay with HOP-92 NSCLC worked out at 30.3 µM; with SK-OV-3 ovarian, 45.5 µM; in the assay on 786-0 renal, 31.3 µM; in the assay on SF-539 CNS it was 53.9 µM.

With `COc1cc(Cl)cc(-c2nn(C(=O)NCCN3CCN(C)CC3)cc2-c2ccncc2)c1`, the GI50 with SNB-75 CNS is 1.75 µM; with PC-3 prostate it was 19.5 µM; with SK-MEL-2 melanoma, 19.3 µM; with HL-60(TB) leukemia it was 25.6 µM; in the assay on HT29 colon, 3.32 µM; in the assay on OVCAR-3 ovarian it was 23.6 µM. Moreover, the GI50 was 2.83 µM in the assay on HOP-92 NSCLC, 5.44 µM in the assay on SK-OV-3 ovarian, 5.99 µM in the assay with 786-0 renal and 2.84 µM in the assay with SF-539 CNS. The TGI in the assay with SNB-75 CNS is 9.65 µM; in the assay on PC-3 prostate, > 100 µM; in the assay on SK-MEL-2 melanoma it was 46 µM; in the assay with HL-60(TB) leukemia, 75.8 µM; with HT29 colon it was 72.1 µM; in the assay on OVCAR-3 ovarian, 85.9 µM. Besides, the TGI in the assay on HOP-92 NSCLC is 26.2 µM; with SK-OV-3 ovarian, 28.8 µM; in the assay on 786-0 renal it was 25.6 µM; in the assay with SF-539 CNS it was 22.6 µM.

`O=C(Nc1ccc(-n2cc(-c3ccncc3)c(-c3ccc(Cl)c(O)c3)n2)cc1)Nc1cc(C(F)(F)F)cc(C(F)(F)F)c1`: the GI50 in the assay on SNB-75 CNS was 1.18 µM; in the assay on PC-3 prostate, 2.05 µM; in the assay with SK-MEL-2 melanoma, 1.8 µM; with HL-60(TB) leukemia it was 2.94 µM; in the assay with HT29 colon, 1.95 µM; with OVCAR-3 ovarian, 1.52 µM. Further, the GI50 in the assay with HOP-92 NSCLC was 1.34 µM; in the assay with SK-OV-3 ovarian, 2.13 µM; in the assay with 786-0 renal, 1.8 µM; with SF-539 CNS, 1.94 µM. Moreover, the TGI in the assay with SNB-75 CNS came out at 3.88 µM; in the assay with PC-3 prostate, 6.1 µM; in the assay on SK-MEL-2 melanoma, 3.45 µM; in the assay on HL-60(TB) leukemia it was 8.84 µM; with HT29 colon, 3.74 µM; in the assay on OVCAR-3 ovarian, 2.89 µM. Besides, the TGI came out at 3.99 µM with HOP-92 NSCLC, 5.43 µM in the assay on SK-OV-3 ovarian, 3.72 µM in the assay with 786-0 renal and 6.4 µM in the assay with SF-539 CNS.

With `[N-]=[N+]=C(C(=O)OCC#CCOC(=O)C(=[N+]=[N-])S(=O)(=O)c1ccccc1)S(=O)(=O)c1ccccc1`, the TGI in the assay with SNB-75 CNS, with PC-3 prostate, with SK-MEL-2 melanoma, with HL-60(TB) leukemia, in the assay with HT29 colon and in the assay on OVCAR-3 ovarian was > 10 µM throughout. The TGI in the assay on HOP-92 NSCLC, in the assay on SK-OV-3 ovarian, in the assay on 786-0 renal and in the assay with SF-539 CNS was > 10 µM in each case.

On to `Cc1ccccc1CN1CC2=C(CCN(Cc3ccccc3)C2=O)N2CCN=C12`, for which the TGI with SNB-75 CNS is > 100 µM; in the assay with PC-3 prostate, > 100 µM; with SK-MEL-2 melanoma, > 81.6 µM; in the assay with HL-60(TB) leukemia, > 100 µM; with HT29 colon, > 100 µM; in the assay on OVCAR-3 ovarian, > 87 µM. Further, the TGI was > 100 µM with HOP-92 NSCLC, > 52.6 µM in the assay on SK-OV-3 ovarian, > 100 µM with 786-0 renal and > 14.1 µM in the assay on SF-539 CNS.

For the origin of these results see PubChem BioAssay (NCI).
